# Results taken from patent publication US20040044000A1, “Isoquinoline derivatives as matrix metalloproteinase inhibitors” (priority 2002, published 2004).
# Where two headings read alike, the source gives them in different places.
# Molecular target: T1, MMP-13 catalytic domain (MMP-13CD) (Homo sapiens, UniProt P45452)
# T1 construct: use the catalytic domain of the MMP-13 enzyme, namely matrix metalloproteinase-13 catalytic domain (“MMP-13CD”), rather than the corresponding full-length enzyme
# Test: Inhibition of MMP-13 catalytic domain (thiopeptolide substrate hydrolysis)
# Type: biochemical
# Excerpt: The assays measure the amount by which a test compound reduces the hydrolysis of a thiopeptolide substrate catalyzed by a matrix metalloproteinase enzyme. Such assays are described in detail by Ye et al., in Biochemistry, 1992;31(45):11231-11235, which is incorporated herein by reference. One such assay is described below in Biological Method 1.
# Some of the particular methods described below use the catalytic domain of the MMP-13 enzyme, namely matrix metalloproteinase-13 catalytic domain (“MMP-13CD”), rather than the corresponding full-length enzyme, MMP-13. It has been shown previously by Ye Qi-Zhuang, Hupe D., and Johnson L. (Current Medicinal Chemistry, 1996;3:407-418) that inhibitor activity against a catalytic domain of an MMP is predictive of the inhibitor activity against the respective full-length MMP enzyme.
# Thiopeptolide substrates show virtually no decomposition or hydrolysis at or below neutral pH in the absence of a matrix metalloproteinase enzyme. A typical thiopeptolide substrate commonly utilized for assays is Ac-Pro-Leu-Gly-thioester-Leu-Leu-Gly-OEt. A 100 μL assay mixture will contain 50 mM of N-2-hydroxyethylpiperazine-N′-2-ethanesulfonic acid buffer (“HEPES,” pH 7.0), 10 mM CaCl2, 100 μM thiopeptolide substrate, and 1 mM 5,5′-dithio-bis-(2-nitro-benzoic acid) (DTNB). The thiopeptolide substrate concentration may be varied, for example from 10 to 800 μM to obtain Km and Kcat values. The change in absorbance at 405 nm is monitored on a Thermo Max microplate reader (molecular Devices, Menlo Park, Calif.) at room temperature (22° C.). The calculation of the amount of hydrolysis of the thiopeptolide substrate is based on E412=13600 M^−1 cm^−1 for the DTNB-derived product 3-carboxy-4-nitrothiophenoxide. Assays are carried out with and without matrix metalloproteinase inhibitor compounds, and the amount of hydrolysis is compared for a determination of inhibitory activity of the test compounds.
# Test compounds were evaluated at various concentrations in order to determine their respective IC50 values, the micromolar concentration of compound required to cause a 50% inhibition of catalytic activity of the respective enzyme.
# [1] = Biological Table 1, read-out: MMP-13CD IC50
# [2] = Biological Table 2, compounds of Example 66, read-out: MMP-13CD IC50
# [3] = read-out: IC50 with MMP-13 catalytic domain
SMILES,IC50 [1] [µM],IC50 [2] [µM],also measured
"COc1ccc2nc(Cn3ccc4ccc(C#CCc5ccccc5)cc4c3=O)c(=O)oc2c1 [Example 66u, 7-Methoxy-3-[1-oxo-7-(3-phenyl-prop-1-ynyl)-1H-isoquinolin-2-ylmethyl]-1,4-benzoxazin-2-one]",–,11,–
"O=c1c2cc(C#CCc3ccccc3)ccc2ccn1CCCC(F)(F)F [Example 66ai, 7-(3-Phenyl-prop-1-ynyl)-2-(4,4,4-trifluoro-butyl)-2H-isoquinolin-1-one]",–,14,–
"O=c1c2cc(C#CCc3ccccc3)ccc2ccn1CS(=O)(=O)c1ccccc1 [Example 66ad, 2-Benzenesulfonylmethyl-7-(3-phenyl-prop-1-ynyl)-2H-isoquinolin-1-one]",–,20,–
"O=c1c2cc(C#CCc3ccccc3)ccc2ccn1CC(F)(F)F [Example 66ah, 7-(3-Phenyl-prop-1-ynyl)-2-(2,2,2-trifluoro-ethyl)-2H-isoquinolin-1-one]",–,24,–
"N#CCCn1ccc2ccc(C#CCc3ccccc3)cc2c1=O [Example 66d, 3-[1-Oxo-7-(3-phenyl-prop-1-ynyl)-1H-isoquinolin-2-yl]-propionitrile]",–,4.8,–
"CCOC(=O)CCCn1ccc2ccc(C#CCc3ccccc3)cc2c1=O [Example 66aa, 4-[1-Oxo-7-(3-phenyl-prop-1-ynyl)-1H-isoquinolin-2-yl]-butyric acid ethyl ester]",–,12,–
"NS(=O)(=O)c1ccc(Cn2ccc3ccc(C#CCc4ccccc4)cc3c2=O)cc1 [Example 5, 4-[1-Oxo-7-(3-phenyl-prop-1-ynyl)-1H-isoquinolin-2-ylmethyl]benzenesulfonamide]",–,–,IC50 [3]: 0.036 µM
"N#CCCCCCCn1ccc2ccc(C#CCc3ccccc3)cc2c1=O [Example 66aj, 7-[1-Oxo-7-(3-phenyl-prop-1-ynyl)-1H-isoquinolin-2-yl]-heptanenitrile]",–,3.9,–
"COCCn1ccc2ccc(C#CCc3ccccc3)cc2c1=O [Example 66w, 2-(2-Methoxy-ethyl)-7-(3-phenyl-prop-1-ynyl)-2H-isoquinolin-1-one]",–,> 30,–
"CC(=O)OCCCCn1ccc2ccc(C#CCc3ccccc3)cc2c1=O [Example 66l, Acetic acid 4-[1-oxo-7-(3-phenyl-prop-1-ynyl)-1H-isoquinolin-2-yl]-butyl ester]",–,14,–
"COC(=O)CCCCn1ccc2ccc(C#CCc3ccccc3)cc2c1=O [Example 66p, 5-[1-Oxo-7-(3-phenyl-prop-1-ynyl)-1H-isoquinolin-2-yl]-pentanoic acid methyl ester]",–,9.4,–
"CCOC(=O)CCCCn1ccc2ccc(C#CCc3ccccc3)cc2c1=O [Example 66s, 5-[1-Oxo-7-(3-phenyl-prop-1-ynyl)-1H-isoquinolin-2-yl]-pentanoic acid ethyl ester]",–,8.7,–
"CC(C)(C)C(=O)Cn1ccc2ccc(C#CCc3ccccc3)cc2c1=O [Example 66ae, 2-(3,3-Dimethyl-2-oxo-butyl)-7-(3-phenyl-prop-1-ynyl)-2H-isoquinolin-1-one]",–,19,–
"N#CCCCn1ccc2ccc(C#CCc3ccccc3)cc2c1=O [Example 66c, 4-[1-Oxo-7-(3-phenyl-prop-1-ynyl)-1H-isoquinolin-2-yl]-butyronitrile]",–,22.5,–
"N#CCCCCCn1ccc2ccc(C#CCc3ccccc3)cc2c1=O [Example 66af, 6-[1-Oxo-7-(3-phenyl-prop-1-ynyl)-1H-isoquinolin-2-yl]-hexanenitrile]",–,8.6,–
"O=c1c2cc(C#CCc3ccccc3)ccc2ccn1CCC1OCCCO1 [Example 66f, 2-(2-1,3-Dioxinan-2-yl-ethyl)-7-(3-phenyl-prop-1-ynyl)-2H-isoquinolin-1-one]",–,> 30,–
"O=c1c2cc(C#CCc3ccccc3)ccc2ccn1CC(CO)(CO)CO [Example 66b, 2-(3-Hydroxy-2,2-bis-hydroxymethyl-propyl)-7-(3-phenyl-prop-1-ynyl)-2H-isoquinolin-1-one]",–,> 100,–
"CCC(=O)Cn1ccc2ccc(C#CCc3ccccc3)cc2c1=O [Example 66ab, 2-(2-Oxo-butyl)-7-(3-phenyl-prop-1-ynyl)-2H-isoquinolin-1-one]",–,12,–
"O=C(O)c1ccc(Cn2ccc3ccc(C#CCn4ccnc4)cc3c2=O)cc1 [Example 13, 4-[7-(3-Imidazol-1-ylprop-1-ynyl)-1-oxo-1H-isoquinolin-2-ylmethyl]benzoic Acid]",–,–,IC50 [3]: 0.0089 µM
"CCOC(=O)Cn1ccc2ccc(C#CCc3ccccc3)cc2c1=O [Example 66x, [1-Oxo-7-(3-phenyl-prop-1-ynyl)-1H-isoquinolin-2-yl]-acetic acid ethyl ester]",–,11,–
"N#CCCCCn1ccc2ccc(C#CCc3ccccc3)cc2c1=O [Example 66j, 5-[1-Oxo-7-(3-phenyl-prop-1-ynyl)-1H-isoquinolin-2-yl]-pentanenitrile]",–,11,–
"O=c1c2cc(C#CCc3ccccc3)ccc2ccn1CC(O)CO (stereo not drawn) [Example 66e, 2-(2,3-Dihydroxy-propyl)-7-(3-phenyl-prop-1-ynyl)-2H-isoquinolin-1-one]",–,50,–

# Continued, in another order:
IC50 [1] [µM],IC50 [2] [µM],SMILES,also measured
7.4,–,"CS(=O)(=O)c1ccc(Cn2ccc3ccc(C(=O)NCc4cccnc4)cc3c2=O)cc1 [Example 50, 2-(4-methane-sulfonylbenzyl)-1-oxo-1,2-dihydro-isoquinoline-7-carboxylic Acid (pyridin-3-ylmethyl)amide]",–
–,1.9,"O=c1c2cc(C#CCc3ccccc3)ccc2ccn1Cc1ccccc1 [Example 66ag, 2-Benzyl-7-(3-phenyl-prop-1-ynyl)-2H-isoquinolin-1-one]",–
35,–,"CS(=O)(=O)c1ccc(Cn2ccc3ccc(C(=O)NCc4cncnc4)cc3c2=O)cc1 [Example 54, 2-(4-methane-sulfonylbenzyl)-1-oxo-1,2-dihydro-isoquinoline-7-carboxylic Acid (pyrimidin-5-ylmethyl)amide]",–
> 10,–,"Cc1ccc(CNC(=O)c2ccc3ccn(CCOc4ccccc4)c(=O)c3c2)cc1 [Example 47, 1-oxo-2-(2-phenoxyethyl)-1,2-dihydroisoquinoline-7-carboxylic Acid 4-methylbenzamide]",–
> 100,–,"O=C(NCc1cncnc1)c1ccc2ccn(CCOc3ccccc3)c(=O)c2c1 [Example 46, 1-oxo-2-(2-phenoxyethyl)-1,2-dihydroisoquinoline-7-carboxylic Acid (pyrimidin-5-ylmethyl)-amide]",–
49,–,"O=C(NCCn1cccc1)c1ccc2ccn(Cc3ccc(-c4nn[nH]n4)cc3)c(=O)c2c1 [Example 63, 1-oxo-2-[4-(2H-tetrazol-5-yl)benzyl]-1,2-dihydroisoquinoline-7-carboxylic Acid (2-pyrrol-1-yl-ethyl)amide]",–
2.2,–,"CSc1ccc(CNC(=O)c2ccc3ccn(Cc4ccc(S(C)(=O)=O)cc4)c(=O)c3c2)cc1 [Example 56, 2-(4-methane-sulfonylbenzyl)-1-oxo-1,2-dihydro-isoquinoline-7-carboxylic Acid 4-methyl-sulfanylbenzylamide]",–
–,22,"COC(=O)Cn1ccc2ccc(C#CCc3ccccc3)cc2c1=O [Example 66q, [1-Oxo-7-(3-phenyl-prop-1-ynyl)-1H-isoquinolin-2-yl]-acetic acid methyl ester]",–
1.2,–,"COc1cccc(CNC(=O)c2ccc3ccn(CCOc4ccccc4)c(=O)c3c2)c1 [Example 45, 1-oxo-2-(2-phenoxyethyl)-1,2-dihydroisoquinoline-7-carboxylic Acid 3-methoxybenzylamide]",–
1.3,–,"N#Cc1ccc(Cn2ccc3ccc(C(=O)NCc4ccncc4)cc3c2=O)cc1 [Example 33, 2-(4-cyanobenzyl)-1-oxo-1,2-dihydro-isoquinoline-7-carboxylic Acid (pyridin-4-ylmethyl)amide]",–
1.8,–,"O=C(O)c1ccc(Cn2ccc3ccc(C(=O)NCc4cncnc4)cc3c2=O)cc1 [Example 28, 4-[1-oxo-7-[(pyrimidin-5-ylmethyl)carbamoyl]-1H-isoquinolin-2-ylmethyl]benzoic Acid]",–
> 10,–,"Cc1ccc(CNC(=O)c2ccc3ccn(Cc4ccc(C#N)cc4)c(=O)c3c2)cc1 [Example 39, 2-(4-cyanobenzyl)-1-oxo-1,2-dihydro-isoquinoline-7-carboxylic Acid 4-methylbenzylamide]",–
3.4,–,"N#Cc1ccc(Cn2ccc3ccc(C(=O)NCc4cccnc4)cc3c2=O)cc1 [Example 34, 2-(4-cyanobenzyl)-1-oxo-1,2-dihydro-isoquinoline-7-carboxylic acid (pyridin-3-ylmethyl)amide]",–
12,–,"O=C(NCc1ccco1)c1ccc2ccn(Cc3ccc(-c4nn[nH]n4)cc3)c(=O)c2c1 [Example 62, 1-oxo-2-[4-(2H-tetrazol-5-yl)benzyl]-1,2-dihydroisoquinoline-7-carboxylic Acid (furan-2-ylmethyl)amide]",–
